ChEMBL document CHEMBL6103541, “Ringing medicinal chemistry: The importance of 3-membered rings in drug discovery” (Bioorg Med Chem, 2024)
Converted amounts (≈) assume the structure as drawn. *1 amine or outer side, *2 acyl side, *3 side chain or, on linkers, in order; H or OH if unused. Where a SMILES comes first, the peptide text is derived from it. [ ]: non-standard residue; d: D form. The star is where a group is joined. X1 = CCCC(N[*:1])C(=O)C(=O)[*:2]; Chg = N[C@H](C(=O)O)C1CCCCC1; Phg = N[C@H](C(=O)O)c1ccccc1; Boc = CC(C)(C)OC(=O)*

Experiments:
NS3 protease [1] = biological target: T1, NS3 protease (Hepacivirus C, UniProt C1KIQ2); assay: Binding affinity to HCV NS3 protease assessed as inhibition constant; set-up: species or system Hepacivirus hominis
T1 sequence (C1KIQ2 whole entry): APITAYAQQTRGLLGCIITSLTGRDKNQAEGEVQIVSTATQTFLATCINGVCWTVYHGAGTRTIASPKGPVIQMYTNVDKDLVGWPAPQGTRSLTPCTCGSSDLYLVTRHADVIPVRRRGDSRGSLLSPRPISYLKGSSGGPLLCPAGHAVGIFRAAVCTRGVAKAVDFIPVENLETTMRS

[2] = biological target: Human immunodeficiency virus type 1 reverse transcriptase (Human immunodeficiency virus 1, UniProt Q72547); assay: Inhibition of HIV-1 reverse transcriptase
NS3 protease [3] = biological target: T1, NS3 protease; assay: Binding affinity to Hepatitis C virus genotype 1b NS3 protease assessed as inhibition constant; set-up: species or system Hepacivirus hominis
NS3 protease [4] = biological target: T1, NS3 protease; assay: Inhibition of Hepatitis C virus genotype 1b NS3 protease; set-up: species or system Hepacivirus hominis
NS3 protease [5] = biological target: T1, NS3 protease; assay: Binding affinity to Hepatitis C virus genotype 1a NS3 protease assessed as inhibition constant; set-up: species or system Hepacivirus hominis
SK-BR-3 = assay: Antiproliferative activity against human SK-BR-3 cells; type: functional, cell-based
Staphylococcus aureus [6] = assay: In vivo antibacterial activity against erythromycin-resistant Staphylococcus aureus infected mouse model assessed as curative dose; type: functional
Staphylococcus aureus [7] = assay: In vivo antibacterial activity against Staphylococcus aureus infected mouse model assessed as curative dose; type: functional
Staphylococcus aureus [8] = assay: In vivo antibacterial activity against streptomycin-resistant Staphylococcus aureus infected mouse model assessed as curative dose; type: functional
HPAC = assay: Antiproliferative activity against human HPAC cells assessed as inhibition of cell growth measured after 72 hrs by MTT assay; type: functional, cell-based
Capan-2 = assay: Antiproliferative activity against human Capan-2 cells assessed as reduction in cell viability incubated for 72 hrs by MTT assay; type: functional, cell-based; conditions: Capan-2, 72 h
Hepatitis C virus = assay: Antiviral activity against Hepatitis C virus infected in human Huh7.5 cells assessed as reduction in viral replication; type: functional, Hepacivirus hominis
[9] = Half life in Wistar rat at 10 mg/kg, iv measured for 24 hrs by LC-MS/MS analysis; type: ADME, organism-based; conditions: in vivo
[10] = Volume of distribution at steady state in Wistar rat at 10 mg/kg, iv measured for 24 hrs by LC-MS/MS analysis; type: ADME, organism-based; conditions: in vivo
MDA-MB-231 = assay: Antiproliferative activity against human MDA-MB-231 cells assessed as reduction in cell viability incubated for 72 hrs by MTT assay; type: functional, cell-based; conditions: MDA-MB-231, 72 h
[11] = Inhibition of 20s constitutive proteasome beta-5c (unknown origin); set-up: species or system Homo sapiens
BT-549 = assay: Cytotoxicity against human BT-549 cells assessed as inhibition of cell growth incubated for 72 hrs by MTT assay; type: functional, cell-based; conditions: BT-549, 72 h
[12] = system: Staphylococcus epidermidis; assay: microbe, parasite or virus in culture
Description: Antibacterial activity against Staphylococcus epidermidis

Staphylococcus aureus [13] = assay: microbe, parasite or virus in culture
Description: Antibacterial activity against Methicillin-resistant staphylococcus aureus

[14] = system: Staphylococcus saprophyticus; assay: microbe, parasite or virus in culture
Description: Antibacterial activity against Staphylococcus saprophyticus

MCF7 = assay: Antiproliferative activity against human MCF7 cells assessed as reduction in cell viability incubated for 48 hrs by MTT assay; type: functional, cell-based; conditions: MCF7, 48 h
SK-N-FI = assay: Antiproliferative activity against human SK-N-FI cells; type: functional, cell-based
[15] = biological target: Vascular endothelial growth factor receptor 1 (Homo sapiens, UniProt P17948); assay: Inhibition of VEGFR1 (unknown origin)
Chain of Vascular endothelial growth factor receptor 1 (P17948 whole entry): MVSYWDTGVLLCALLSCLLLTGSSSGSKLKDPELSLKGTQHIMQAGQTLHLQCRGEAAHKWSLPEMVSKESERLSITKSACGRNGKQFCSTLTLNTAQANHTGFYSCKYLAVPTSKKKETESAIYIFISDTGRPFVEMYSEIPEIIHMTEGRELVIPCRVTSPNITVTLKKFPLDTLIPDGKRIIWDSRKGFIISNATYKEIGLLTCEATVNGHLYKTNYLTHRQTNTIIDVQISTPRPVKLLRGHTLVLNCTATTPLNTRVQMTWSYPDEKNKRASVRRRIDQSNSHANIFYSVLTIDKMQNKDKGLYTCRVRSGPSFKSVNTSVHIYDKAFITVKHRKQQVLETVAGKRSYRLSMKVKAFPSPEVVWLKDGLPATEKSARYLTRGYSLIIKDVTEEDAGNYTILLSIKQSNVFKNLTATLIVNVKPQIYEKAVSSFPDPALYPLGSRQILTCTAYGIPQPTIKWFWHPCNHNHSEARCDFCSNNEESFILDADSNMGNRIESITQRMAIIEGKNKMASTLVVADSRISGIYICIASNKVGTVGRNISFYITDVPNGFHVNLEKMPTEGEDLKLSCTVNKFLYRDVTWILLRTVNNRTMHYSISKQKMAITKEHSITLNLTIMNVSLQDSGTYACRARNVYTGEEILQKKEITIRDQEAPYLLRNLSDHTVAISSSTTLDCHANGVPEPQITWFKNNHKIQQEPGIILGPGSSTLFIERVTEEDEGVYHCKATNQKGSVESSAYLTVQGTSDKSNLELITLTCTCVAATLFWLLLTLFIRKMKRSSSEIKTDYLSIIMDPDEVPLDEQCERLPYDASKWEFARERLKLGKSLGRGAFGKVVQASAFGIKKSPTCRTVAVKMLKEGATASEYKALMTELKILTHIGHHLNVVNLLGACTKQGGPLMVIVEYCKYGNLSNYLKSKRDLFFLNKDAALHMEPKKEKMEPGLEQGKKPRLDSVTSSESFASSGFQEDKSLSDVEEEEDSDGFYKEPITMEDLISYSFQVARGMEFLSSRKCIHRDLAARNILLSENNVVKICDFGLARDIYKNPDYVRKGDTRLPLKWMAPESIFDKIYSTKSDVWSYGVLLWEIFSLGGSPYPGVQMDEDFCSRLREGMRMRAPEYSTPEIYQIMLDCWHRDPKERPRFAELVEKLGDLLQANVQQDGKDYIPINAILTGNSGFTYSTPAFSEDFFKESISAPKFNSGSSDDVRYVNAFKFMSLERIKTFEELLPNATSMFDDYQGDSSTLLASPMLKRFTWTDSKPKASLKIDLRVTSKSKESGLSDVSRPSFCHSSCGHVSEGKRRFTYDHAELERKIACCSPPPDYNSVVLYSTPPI

[16] = biological target: Fibroblast growth factor receptor 4 (Homo sapiens, UniProt P22455); assay: Inhibition of FGFR4 (unknown origin)
[17] = Inhibition of PDGFR (unknown origin); set-up: species or system Homo sapiens
[18] = biological target: Fibroblast growth factor receptor 1 (Homo sapiens, UniProt P11362); assay: Inhibition of FGFR1 (unknown origin)
Chain of Fibroblast growth factor receptor 1 (P11362 whole entry): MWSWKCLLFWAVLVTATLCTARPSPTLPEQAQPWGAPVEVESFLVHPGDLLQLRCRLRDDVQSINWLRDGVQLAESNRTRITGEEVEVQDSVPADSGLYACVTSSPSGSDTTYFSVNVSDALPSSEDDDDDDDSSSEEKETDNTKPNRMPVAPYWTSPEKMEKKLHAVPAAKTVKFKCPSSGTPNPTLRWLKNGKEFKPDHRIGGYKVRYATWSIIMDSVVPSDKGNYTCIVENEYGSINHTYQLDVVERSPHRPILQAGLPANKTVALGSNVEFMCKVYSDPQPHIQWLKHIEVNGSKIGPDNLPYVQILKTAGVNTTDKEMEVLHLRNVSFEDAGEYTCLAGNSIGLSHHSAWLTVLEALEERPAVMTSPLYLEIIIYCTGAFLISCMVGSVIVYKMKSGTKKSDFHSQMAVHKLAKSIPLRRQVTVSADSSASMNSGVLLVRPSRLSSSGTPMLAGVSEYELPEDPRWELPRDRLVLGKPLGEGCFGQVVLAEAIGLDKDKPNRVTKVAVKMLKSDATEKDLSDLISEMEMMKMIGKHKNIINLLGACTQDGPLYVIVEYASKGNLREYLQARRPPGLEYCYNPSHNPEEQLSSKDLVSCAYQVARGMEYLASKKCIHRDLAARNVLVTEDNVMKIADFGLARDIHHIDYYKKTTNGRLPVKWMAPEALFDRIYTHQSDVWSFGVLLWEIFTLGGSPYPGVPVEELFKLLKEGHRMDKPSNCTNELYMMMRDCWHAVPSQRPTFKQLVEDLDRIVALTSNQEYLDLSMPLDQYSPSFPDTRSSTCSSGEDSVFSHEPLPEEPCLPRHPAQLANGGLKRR

[19] = biological target: Vascular endothelial growth factor receptor 3 (Homo sapiens, UniProt P35916); assay: Inhibition of VEGFR3 (unknown origin)
Chain of Vascular endothelial growth factor receptor 3 (P35916 whole entry): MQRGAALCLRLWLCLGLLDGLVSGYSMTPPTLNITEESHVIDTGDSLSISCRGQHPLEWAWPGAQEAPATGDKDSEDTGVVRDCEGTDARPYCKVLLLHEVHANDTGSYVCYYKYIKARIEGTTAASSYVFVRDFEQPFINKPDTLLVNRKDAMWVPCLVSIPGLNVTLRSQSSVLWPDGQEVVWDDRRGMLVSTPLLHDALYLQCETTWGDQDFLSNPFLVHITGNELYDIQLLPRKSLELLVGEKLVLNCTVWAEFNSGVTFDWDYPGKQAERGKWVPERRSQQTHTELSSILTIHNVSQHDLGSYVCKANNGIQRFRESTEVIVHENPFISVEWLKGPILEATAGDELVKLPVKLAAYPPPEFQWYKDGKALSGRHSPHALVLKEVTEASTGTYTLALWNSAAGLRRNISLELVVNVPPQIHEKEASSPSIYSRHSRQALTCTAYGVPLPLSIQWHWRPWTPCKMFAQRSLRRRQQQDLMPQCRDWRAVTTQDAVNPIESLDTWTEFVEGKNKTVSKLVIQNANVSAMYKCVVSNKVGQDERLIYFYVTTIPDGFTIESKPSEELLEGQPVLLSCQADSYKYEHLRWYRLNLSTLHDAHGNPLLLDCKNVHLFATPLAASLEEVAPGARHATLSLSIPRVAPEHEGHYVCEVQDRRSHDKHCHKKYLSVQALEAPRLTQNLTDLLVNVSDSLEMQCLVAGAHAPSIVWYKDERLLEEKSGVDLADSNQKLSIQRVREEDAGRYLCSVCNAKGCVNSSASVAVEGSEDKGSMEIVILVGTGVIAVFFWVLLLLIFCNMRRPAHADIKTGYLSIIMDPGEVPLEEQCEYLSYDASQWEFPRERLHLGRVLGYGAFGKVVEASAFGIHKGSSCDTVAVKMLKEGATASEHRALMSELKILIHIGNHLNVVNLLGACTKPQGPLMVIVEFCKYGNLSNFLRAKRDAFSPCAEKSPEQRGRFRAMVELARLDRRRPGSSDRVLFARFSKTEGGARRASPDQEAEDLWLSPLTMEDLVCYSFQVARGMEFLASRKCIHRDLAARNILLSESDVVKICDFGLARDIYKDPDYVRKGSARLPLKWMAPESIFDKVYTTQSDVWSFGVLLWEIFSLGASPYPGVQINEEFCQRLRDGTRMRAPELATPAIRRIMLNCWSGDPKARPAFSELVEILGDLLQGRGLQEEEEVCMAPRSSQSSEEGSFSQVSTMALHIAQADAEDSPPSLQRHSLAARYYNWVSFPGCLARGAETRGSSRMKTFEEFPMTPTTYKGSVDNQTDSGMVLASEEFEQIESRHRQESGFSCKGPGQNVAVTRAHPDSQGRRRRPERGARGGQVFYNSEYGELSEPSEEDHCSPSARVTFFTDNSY

[20] = biological target: Fibroblast growth factor receptor 3 (Homo sapiens, UniProt P22607); assay: Inhibition of FGFR3 (unknown origin)
Chain of Fibroblast growth factor receptor 3 (P22607 whole entry): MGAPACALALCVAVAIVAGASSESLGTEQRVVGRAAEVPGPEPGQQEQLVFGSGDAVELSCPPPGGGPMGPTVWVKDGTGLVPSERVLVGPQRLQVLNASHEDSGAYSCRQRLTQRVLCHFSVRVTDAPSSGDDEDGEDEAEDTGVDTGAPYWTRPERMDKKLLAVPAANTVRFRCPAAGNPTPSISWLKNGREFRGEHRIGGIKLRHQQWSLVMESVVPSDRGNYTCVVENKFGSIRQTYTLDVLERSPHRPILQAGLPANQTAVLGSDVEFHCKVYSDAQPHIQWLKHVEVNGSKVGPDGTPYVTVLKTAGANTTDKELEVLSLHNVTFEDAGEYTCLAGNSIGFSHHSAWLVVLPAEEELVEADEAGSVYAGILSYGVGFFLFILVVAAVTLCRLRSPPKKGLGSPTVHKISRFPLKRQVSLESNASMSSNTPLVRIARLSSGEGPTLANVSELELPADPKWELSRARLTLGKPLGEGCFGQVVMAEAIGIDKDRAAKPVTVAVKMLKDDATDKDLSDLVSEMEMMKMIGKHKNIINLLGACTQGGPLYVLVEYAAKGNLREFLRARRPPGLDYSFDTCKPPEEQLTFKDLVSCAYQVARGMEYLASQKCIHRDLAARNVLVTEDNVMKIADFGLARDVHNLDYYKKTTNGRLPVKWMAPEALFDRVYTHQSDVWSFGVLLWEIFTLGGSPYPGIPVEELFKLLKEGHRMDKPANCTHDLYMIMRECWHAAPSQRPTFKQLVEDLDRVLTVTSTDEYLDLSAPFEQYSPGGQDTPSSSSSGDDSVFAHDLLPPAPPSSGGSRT

J82 = assay: Antiproliferative activity against human J82 cells; type: functional, cell-based
[21] = Inhibition of PK1 (unknown origin); set-up: species or system Homo sapiens
SCaBER = assay: Antiproliferative activity against human SCaBER cells; type: functional, cell-based
Staphylococcus aureus [22] = assay: Antibacterial activity against Staphylococcus aureus; type: functional
Thermus thermophilus = assay: Antibacterial activity against Thermus thermophilus; type: functional, organism-based
Pseudomonas aeruginosa = assay: Antibacterial activity against Pseudomonas aeruginosa ATCC 15442 assessed as reduction in bacterial cell growth incubated for 18 hrs by two fold serial microdilution method; type: functional
Escherichia coli = assay: Antibacterial activity against Escherichia coli assessed as reduction in bacterial growth by broth microdilution method; type: functional
Staphylococcus aureus [23] = assay: Antibacterial activity against Staphylococcus aureus ATCC 25923 assessed as bacterial growth inhibition measured after 18 hrs by CLSI protocol based two-fold serial microdilution method; type: functional
Streptococcus pneumoniae = assay: Antibacterial activity against Streptococcus pneumoniae ATCC 49619 assessed as inhibition of bacterial growth incubated for 24 hrs by CLSI protocol based broth micro-dilution method; type: functional
Tubulin = assay: Inhibition of tubulin polymerization (unknown origin); type: protein-complex assay, Homo sapiens
[24] = Inhibition of LPS-induced NFkappaB activation in mouse RAW264.7 cells assessed as inhibition of IKKalpha phosphorylation level incubated for 1 hrs by Western blot analysis; type: cell-based; conditions: RAW264.7, 1 h

CCN1c2ncccc2C(=O)Nc2c(C)ccnc21
Ki (NS3 protease [1]): 10 nM | IC50 [2]: 30 nM

COc1ccc2c(O[C@@H]3C[C@H]4C(=O)N[C@]5(C(=O)NS(=O)(=O)C6CC6)C[C@H]5/C=C\CCCCN(C)C(=O)[C@@H]4C3)cc(-c3nc(C(C)C)cs3)nc2c1C
Ki (NS3 protease [3]): 0.4 nM | IC50 (NS3 protease [4]): 8 nM | Ki (NS3 protease [5]): 0.5 nM

COc1cc2cc(c1Cl)N(C)C(=O)C[C@H](OC(=O)[C@@H](C)N(C)C(=O)CCS)[C@]1(C)O[C@H]1[C@H](C)[C@@H]1C[C@@](O)(NC(=O)O1)[C@H](OC)/C=C/C=C(\C)C2
IC50 (SK-BR-3): 1.1 nM

CC(C)[C@H](N)C(=O)N[C@H](C(=O)O)[C@@H]1C[C@H](NC(=N)N)[C@@H]2CN21 (some centres not stated)
CD50 (Staphylococcus aureus [6]): 11 mg/kg | CD50 (Staphylococcus aureus [7]): 7.6 mg/kg | CD50 (Staphylococcus aureus [8]): 10 mg/kg

CCn1c(-c2cc(N3CCN(C)CC3)cnc2[C@H](C)OC)c2c3cc(ccc31)-c1csc(n1)C[C@H](NC(=O)[C@H]1C[C@@H]1C)C(=O)N1CCC[C@H](N1)C(=O)OCC(C)(C)C2
IC50 (HPAC): 1.2 nM | IC50 (Capan-2): 1.4 nM

COc1ccc2c(O[C@@H]3C[C@H]4C(=O)N[C@]5(C(=O)O)C[C@H]5/C=C/CCCCC[C@H](NC(=O)OC5CCCC5)C(=O)N4C3)cc(-c3csc(NC(C)C)n3)cc2c1
Ki (NS3 protease [3]): 3 nM | IC50 (NS3 protease [4]): 3 nM | Ki (NS3 protease [5]): 0.3 nM

CCCC(NC(=O)[C@H](CC(C)C)NC(=O)[C@@H](NC(=O)OC(C)(C)C)C1CCCCC1)C(=O)C(=O)NCC(=O)N[C@H](C(N)=O)c1ccccc1 (some centres not stated) (Boc-[Chg]L[X1]G[Phg]-NH2)
Ki (NS3 protease [1]): 66 nM | EC90 (Hepatitis C virus): 200 nM

CC[C@@H]1C(=O)N(C)c2cnc(Nc3ccc(C(=O)NC4CCN(C)CC4)cc3OC)nc2N1C1CCCC1 [BI-2536]
half-life [9]: < 50 h | Vd [10]: 750 L

CC(C)(C)NC(=O)N[C@H](C(=O)N1C[C@H]2[C@@H]([C@H]1C(=O)NC(CC1CCC1)C(=O)C(N)=O)C2(C)C)C(C)(C)C (some centres not stated) [BOCEPREVIR]
Ki (NS3 protease [1]): 14 nM | EC90 (Hepatitis C virus): 350 nM

CC(C)C[C@H](NC(=O)[C@H](CCc1ccccc1)NC(=O)CN1CCOCC1)C(=O)N[C@@H](Cc1ccccc1)C(=O)N[C@@H](CC(C)C)C(=O)[C@@]1(C)CO1 [CARFILZOMIB]
IC50 (MDA-MB-231): 22.4 nM | IC50 [11]: 6 nM | IC50 (BT-549): 10.8 nM

O=C(O)c1cn(C2CC2)c2cc(N3CCNCC3)c(F)cc2c1=O [CIPROFLOXACIN]
MIC [12]: < 1 µg/mL | MIC (Staphylococcus aureus [13]): 0.12 µg/mL (≈ 0.362 µM) | MIC [14]: < 1 µg/mL

C[C@]12C[C@H]3S[C@H]3C[C@@H]1CC[C@@H]1[C@@H]2CC[C@]2(C)[C@@H](O)CC[C@@H]12 [EPITIOSTANOL]
IC50 (MCF7): 30 nM

C/C1=C/C[C@@H](/C(C)=C/c2csc(C)n2)OC(=O)C[C@H](O)C(C)(C)C(=O)[C@H](C)[C@@H](O)[C@@H](C)CCC1 [EPOTHILONE D]
IC50 (SK-N-FI): 46 nM

C/C(=C\c1csc(C)n1)[C@@H]1C[C@@H]2O[C@]2(C)CCC[C@H](C)[C@H](O)[C@@H](C)C(=O)C(C)(C)[C@@H](O)CC(=O)N1 [IXABEPILONE]
IC50 (SK-N-FI): 10 nM

COc1cc2nccc(Oc3ccc(NC(=O)NC4CC4)c(Cl)c3)c2cc1C(N)=O [LENVATINIB]
IC50 [15]: 2 nM | IC50 [16]: 27 nM | IC50 [17]: 29 nM | IC50 [18]: 27 nM | IC50 [19]: 2 nM | IC50 [20]: 27 nM

CO[C@@]12[C@H](COC(N)=O)C3=C(C(=O)C(C)=C(N)C3=O)N1C[C@@H]1N[C@@H]12 [MITOMYCIN]
IC50 (J82): 300 nM | IC50 [21]: 287 nM | IC50 (SCaBER): 1500 nM

C/C(=C\C(=O)OCCCCCCCCC(=O)O)C[C@@H]1OC[C@H](C[C@@H]2O[C@H]2[C@@H](C)[C@H](C)O)[C@@H](O)[C@H]1O [MUPIROCIN]
MIC (Staphylococcus aureus [22]): 0.1 µg/mL (≈ 0.2 µM) | IC50 (Thermus thermophilus): 900 nM

CCn1cc(C(=O)O)c(=O)c2cc(F)c(N3CCNCC3)cc21 [NORFLOXACIN]
MIC (Pseudomonas aeruginosa): ≤ 0.06 µg/mL | MIC (Escherichia coli): ≤ 0.06 µg/mL | MIC (Staphylococcus aureus [23]): ≤ 0.06 µg/mL | MIC (Streptococcus pneumoniae): ≤ 0.06 µg/mL

COC[C@H](NC(=O)c1cnc(C)s1)C(=O)N[C@@H](COC)C(=O)N[C@@H](Cc1ccccc1)C(=O)[C@@]1(C)CO1 [OPROZOMIB]
IC50 (MDA-MB-231): 79 nM | IC50 [11]: 36 nM | IC50 (BT-549): 50 nM

C/C(=C\c1csc(C)n1)[C@@H]1C[C@@H]2O[C@]2(C)CCC[C@H](C)[C@H](O)[C@@H](C)C(=O)C(C)(C)[C@@H](O)CC(=O)O1 [PATUPILONE]
IC50 (SK-N-FI): 10 nM | IC50 (Tubulin): 1.8 nM

CC[C@@H]1C(=O)N(C)c2cnc(Nc3ccc(C(=O)N[C@H]4CC[C@H](N5CCN(CC6CC6)CC5)CC4)cc3OC)nc2N1C(C)C [VOLASERTIB]
half-life [9]: > 110 h | Vd [10]: > 4000 L

CC1=C(CO)C(=O)O[C@@H]([C@@H](C)[C@H]2CC[C@H]3[C@@H]4C[C@H]5O[C@]56[C@@H](O)C=CC(=O)[C@]6(C)[C@H]4CC[C@]23C)C1 [WITHAFERIN A]
IC50 [24]: 250 nM
